Test results from patent US9145346B1, “Process for 2,2,4,4-tetramethylcyclobutane-1,3-diol crystallization” (Eastman Chemical Company, priority 2014, dated 2015).

Assay: Solubility (saturated concentration) of cis-TMCD and trans-TMCD in various solvents, by gas chromatography
Assay type: physicochemical
Method: All concentrations were measured by gas chromatography. Water concentration was measured by Karl Fischer titrations.
The solubility of cis-TMCD and trans-TMCD in various solvents was determined by charging cis-TMCD, trans-TMCD, and the solvent or solvents of interest into a 120 ml jacketed glass vessel. The vessel was equipped with a stir bar in order to provide mixing and the jacket was used to control the temperature of the vessel contents. The vessel was equipped with charging and sampling ports on top of the vessel.
The slurry was allowed to stand for a time sufficient for the solids to saturate the solvent at the desired temperature. At that time, a sample of the solution was withdrawn from the cell using a fritted pipette so as to remove only the liquid phase. The sample was analyzed for cis-TMCD and trans-TMCD isomer content. These values represent the saturated concentration of each isomer at the sampling temperature.
After this, the cell contents were heated to the next desired temperature and the contents were held for another time interval sufficient to allow the slurry to equilibrate. A sample was then taken of the solution and analyzed. Following this procedure, solubility data was collected up to the final desired temperature.
The reported solubility of each isomer at a given temperature for a given solvent is expressed as a weight % relative to the saturated concentration of the isomer at the highest temperature reported for a given solvent.

CC1(C)[C@H](O)C(C)(C)[C@@H]1O [cis-TMCD, cis-2,2,4,4-tetramethylcyclobutane-1,3-diol]
Relative solubility (2-Ethylhexanol, 0.7° C., relative to 89.8° C.): 10% relative wt % | Relative solubility (2-Ethylhexanol, 12.5° C., relative to 89.8° C.): 16% relative wt % | Relative solubility (2-Ethylhexanol, 24.7° C., relative to 89.8° C.): 21% relative wt % | Relative solubility (2-Ethylhexanol, 40.0° C., relative to 89.8° C.): 29% relative wt % | Relative solubility (2-Ethylhexanol, 49.9° C., relative to 89.8° C.): 37% relative wt % | Relative solubility (2-Ethylhexanol, 60.2° C., relative to 89.8° C.): 46% relative wt % | Relative solubility (2-Ethylhexanol, 69.3° C., relative to 89.8° C.): 58% relative wt % | Relative solubility (2-Ethylhexanol, 79.3° C., relative to 89.8° C.): 76% relative wt % | Relative solubility (2-Ethylhexanol, 89.8° C., relative to 89.8° C.): 100% relative wt % | Relative solubility (2-Ethylhexyl Acetate, 5.9° C., relative to 79.4° C.): 5% relative wt % | Relative solubility (2-Ethylhexyl Acetate, 15.5° C., relative to 79.4° C.): 8% relative wt % | Relative solubility (2-Ethylhexyl Acetate, 25.1° C., relative to 79.4° C.): 12% relative wt % | Relative solubility (2-Ethylhexyl Acetate, 40.5° C., relative to 79.4° C.): 22% relative wt % | Relative solubility (2-Ethylhexyl Acetate, 49.8° C., relative to 79.4° C.): 31% relative wt % | Relative solubility (2-Ethylhexyl Acetate, 49.9° C., relative to 79.4° C.): 32% relative wt % | Relative solubility (2-Ethylhexyl Acetate, 60.5° C., relative to 79.4° C.): 47% relative wt % | Relative solubility (2-Ethylhexyl Acetate, 70.3° C., relative to 79.4° C.): 74% relative wt % | Relative solubility (2-Ethylhexyl Acetate, 79.4° C., relative to 79.4° C.): 100% relative wt % | Relative solubility (2-Ethylhexyl Acetate, −5.0° C., relative to 79.4° C.): 4% relative wt % | Relative solubility (CHDM, 69.0° C., relative to 106.9° C.): 27% relative wt % | Relative solubility (CHDM, 79.2° C., relative to 106.9° C.): 58% relative wt % | Relative solubility (CHDM, 88.9° C., relative to 106.9° C.): 69% relative wt % | Relative solubility (CHDM, 95.6° C., relative to 106.9° C.): 85% relative wt % | Relative solubility (CHDM, 106.9° C., relative to 106.9° C.): 100% relative wt % | Relative solubility (Dimethyl Carbonate, 6.2° C., relative to 70.1° C.): 7% relative wt % | Relative solubility (Dimethyl Carbonate, 16.3° C., relative to 70.1° C.): 9% relative wt % | Relative solubility (Dimethyl Carbonate, 25.7° C., relative to 70.1° C.): 14% relative wt % | Relative solubility (Dimethyl Carbonate, 40.5° C., relative to 70.1° C.): 28% relative wt % | Relative solubility (Dimethyl Carbonate, 54.7° C., relative to 70.1° C.): 55% relative wt % | Relative solubility (Dimethyl Carbonate, 70.1° C., relative to 70.1° C.): 100% relative wt % | Relative solubility (Ethanol, 5.3° C., relative to 60.3° C.): 47% relative wt % | Relative solubility (Ethanol, 14.3° C., relative to 60.3° C.): 52% relative wt % | Relative solubility (Ethanol, 25.5° C., relative to 60.3° C.): 68% relative wt % | Relative solubility (Ethanol, 39.9° C., relative to 60.3° C.): 81% relative wt % | Relative solubility (Ethanol, 50.1° C., relative to 60.3° C.): 88% relative wt % | Relative solubility (Ethanol, 60.3° C., relative to 60.3° C.): 100% relative wt % | Relative solubility (Ethyl Acetate, 4.2° C., relative to 54.9° C.): 15% relative wt % | Relative solubility (Ethyl Acetate, 15.0° C., relative to 54.9° C.): 24% relative wt % | Relative solubility (Ethyl Acetate, 26.2° C., relative to 54.9° C.): 37% relative wt % | Relative solubility (Ethyl Acetate, 40.5° C., relative to 54.9° C.): 62% relative wt % | Relative solubility (Ethyl Acetate, 54.9° C., relative to 54.9° C.): 100% relative wt % | Relative solubility (Ethyl Acetate, −5.1° C., relative to 54.9° C.): 12% relative wt % | Relative solubility (Ethylene Glycol, 26.5° C., relative to 91.4° C.): 25% relative wt % | Relative solubility (Ethylene Glycol, 36.2° C., relative to 91.4° C.): 32% relative wt % | Relative solubility (Ethylene Glycol, 48.5° C., relative to 91.4° C.): 42% relative wt % | Relative solubility (Ethylene Glycol, 61.5° C., relative to 91.4° C.): 57% relative wt % | Relative solubility (Ethylene Glycol, 72.1° C., relative to 91.4° C.): 68% relative wt % | Relative solubility (Ethylene Glycol, 82.2° C., relative to 91.4° C.): 87% relative wt % | Relative solubility (Methanol, 16.9° C., relative to 41.3° C.): 86% relative wt % | Relative solubility (Methanol, 25.6° C., relative to 41.3° C.): 91% relative wt % | Relative solubility (Methanol, 41.3° C., relative to 41.3° C.): 100% relative wt % | Relative solubility (Methanol, −2.5° C., relative to 41.3° C.): 77% relative wt % | Relative solubility (Methyl Acetate, 5.9° C., relative to 49.8° C.): 15% relative wt % | Relative solubility (Methyl Acetate, 15.5° C., relative to 49.8° C.): 22% relative wt % | Relative solubility (Methyl Acetate, 25.1° C., relative to 49.8° C.): 33% relative wt % | Relative solubility (Methyl Acetate, 40.5° C., relative to 49.8° C.): 59% relative wt % | Relative solubility (Methyl Acetate, 49.8° C., relative to 49.8° C.): 100% relative wt % | Relative solubility (Methyl Acetate, −5.0° C., relative to 49.8° C.): 9% relative wt % | Relative solubility (Methyl i-Butyl Carbinol, 9.4° C., relative to 81.9° C.): 20% relative wt % | Relative solubility (Methyl i-Butyl Carbinol, 20.4° C., relative to 81.9° C.): 25% relative wt % | Relative solubility (Methyl i-Butyl Carbinol, 31.1° C., relative to 81.9° C.): 31% relative wt % | Relative solubility (Methyl i-Butyl Carbinol, 40.0° C., relative to 81.9° C.): 40% relative wt % | Relative solubility (Methyl i-Butyl Carbinol, 49.5° C., relative to 81.9° C.): 49% relative wt % | Relative solubility (Methyl i-Butyl Carbinol, 60.0° C., relative to 81.9° C.): 62% relative wt % | Relative solubility (Methyl i-Butyl Carbinol, 69.5° C., relative to 81.9° C.): 78% relative wt % | Relative solubility (Methyl i-Butyl Carbinol, 81.9° C., relative to 81.9° C.): 100% relative wt % | Relative solubility (i-Butyl Acetate, 4.8° C., relative to 90.1° C.): 5% relative wt % | Relative solubility (i-Butyl Acetate, 16.9° C., relative to 90.1° C.): 8% relative wt % | Relative solubility (i-Butyl Acetate, 25.6° C., relative to 90.1° C.): 11% relative wt % | Relative solubility (i-Butyl Acetate, 41.3° C., relative to 90.1° C.): 19% relative wt % | Relative solubility (i-Butyl Acetate, 56.2° C., relative to 90.1° C.): 32% relative wt % | Relative solubility (i-Butyl Acetate, 70.2° C., relative to 90.1° C.): 52% relative wt % | Relative solubility (i-Butyl Acetate, 90.1° C., relative to 90.1° C.): 100% relative wt % | Relative solubility (i-Butyl Acetate, −2.5° C., relative to 90.1° C.): 5% relative wt % | Relative solubility (n-Butanol, 5.9° C., relative to 60.5° C.): 46% relative wt % | Relative solubility (n-Butanol, 15.5° C., relative to 60.5° C.): 51% relative wt % | Relative solubility (n-Butanol, 25.1° C., relative to 60.5° C.): 59% relative wt % | Relative solubility (n-Butanol, 40.5° C., relative to 60.5° C.): 73% relative wt % | Relative solubility (n-Butanol, 49.8° C., relative to 60.5° C.): 86% relative wt % | Relative solubility (n-Butanol, 49.9° C., relative to 60.5° C.): 86% relative wt % | Relative solubility (n-Butanol, 60.5° C., relative to 60.5° C.): 100% relative wt % | Relative solubility (n-Butanol, −5.0° C., relative to 60.5° C.): 41% relative wt % | Relative solubility (n-Butyl Propionate, 6.5° C., relative to 91.9° C.): 4% relative wt % | Relative solubility (n-Butyl Propionate, 16.8° C., relative to 91.9° C.): 7% relative wt % | Relative solubility (n-Butyl Propionate, 27.7° C., relative to 91.9° C.): 10% relative wt % | Relative solubility (n-Butyl Propionate, 41.7° C. (sample 4), relative to 91.9° C.): 17% relative wt % | Relative solubility (n-Butyl Propionate, 41.7° C. (sample 5), relative to 91.9° C.): 18% relative wt % | Relative solubility (n-Butyl Propionate, 52.0° C., relative to 91.9° C.): 27% relative wt % | Relative solubility (n-Butyl Propionate, 61.5° C., relative to 91.9° C.): 37% relative wt % | Relative solubility (n-Butyl Propionate, 69.1° C., relative to 91.9° C.): 50% relative wt % | Relative solubility (n-Butyl Propionate, 80.7° C., relative to 91.9° C.): 74% relative wt % | Relative solubility (n-Butyl Propionate, 91.9° C., relative to 91.9° C.): 100% relative wt % | Relative solubility (n-Propyl Propionate, 7.0° C., relative to 72.2° C.): 10% relative wt % | Relative solubility (n-Propyl Propionate, 17.1° C., relative to 72.2° C.): 14% relative wt % | Relative solubility (n-Propyl Propionate, 26.7° C., relative to 72.2° C.): 21% relative wt % | Relative solubility (n-Propyl Propionate, 37.4° C., relative to 72.2° C.): 30% relative wt % | Relative solubility (n-Propyl Propionate, 42.4° C., relative to 72.2° C.): 34% relative wt % | Relative solubility (n-Propyl Propionate, 52.2° C., relative to 72.2° C.): 50% relative wt % | Relative solubility (n-Propyl Propionate, 62.9° C., relative to 72.2° C.): 72% relative wt % | Relative solubility (n-Propyl Propionate, 72.2° C., relative to 72.2° C.): 100% relative wt %
